Earlier results in US7638299B2, “Biosynthetic polypeptides utilizing non-naturally encoded amino acids” (Ambrx, Inc., priority 2004, dated 2009).
Read-outs that look alike come from different tables or passages of the source. No end group written: not given here.

Columns and labels:
[1] = administered subcutaneously
[2] = U.S. Pat. No. 5,118,666
[3] = stored at 4° C. (Mojsov)
NIDDM patients = settings: 4 ng/kg/min intravenously, continuously for one week
[4] = humans
[5] = Kreymann et al., 1987
[6] = in vitro studies and in animals
GLP-1 receptor = target: T1, GLP-1 receptor (Rattus norvegicus, UniProt P32301); settings: rats
T1 construct: host or cells: live rats (endogenous receptor)
T1 sequence (P32301 22-463): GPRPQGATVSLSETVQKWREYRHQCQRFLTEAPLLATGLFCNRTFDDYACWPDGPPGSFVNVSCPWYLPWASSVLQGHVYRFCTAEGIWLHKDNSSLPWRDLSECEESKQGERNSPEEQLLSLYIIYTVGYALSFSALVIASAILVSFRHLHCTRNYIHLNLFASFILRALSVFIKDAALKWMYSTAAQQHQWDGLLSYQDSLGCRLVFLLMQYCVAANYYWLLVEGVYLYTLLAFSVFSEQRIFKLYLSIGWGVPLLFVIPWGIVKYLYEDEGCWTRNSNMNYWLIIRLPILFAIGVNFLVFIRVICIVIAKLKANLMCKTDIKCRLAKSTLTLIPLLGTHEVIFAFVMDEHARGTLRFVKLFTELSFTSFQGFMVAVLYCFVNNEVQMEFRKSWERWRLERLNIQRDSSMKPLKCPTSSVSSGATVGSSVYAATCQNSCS

[7] = intraventricular administration

GLP-1(7-36) amide: SEQ ID NO: 1; His-Ala-Glu-Gly-...-Lys-Gly-Arg-X wherein X is NH2 (HAEGTFTSDVSSYLEGQAAKEFIAWLVKGR-NH2; listed as Homo sapiens)
time action [1]: about 50 minutes

GLP-1(7-37): SEQ ID NO: 2; His-Ala-Glu-Gly-...-Lys-Gly-Arg-X wherein X is Gly
biological half-life [2]: 3 to 5 minutes | serum half-life [2]: 3 to 5 min | appearance of by-products on storage [3]: have been found as early as eleven months after sample preparation

GLP-1: product of the proglucagon gene, gut incretin hormone
food intake (food intake in rats; acute, peripheral administration): does not inhibit food intake acutely | food intake (food intake in rats; [7]): profoundly inhibits food intake | glycaemic control (NIDDM patients): dramatically improve glycaemic control | side effects (NIDDM patients): without significant side effects | plasma half-life [4]: 2 min | half-life of circulating GLP-1 [5]: about 4 minutes

N-terminally extended GLP-1 (PG 72-107)amide: N-terminally extended GLP-1, proglucagon 72-107 amide (QDFVQWLMNTKRNRNNIAKRHDEFERHAEGTFTSDV-NH2; UniProt P01275 72-107, looked up, fragment)
food intake (food intake in rats; [7]): inactive

PYY: thirty six amino acid long peptide secreted by endocrine cells of the distal gastrointestinal tract
appetite and food intake (lean and obese subjects; administered intravenously, lean and obese subjects): suppresses appetite and food intake | oral activity (lean and obese subjects; oral, low absorption and rapid degradation in the gastrointestinal tract): negligible

enfuvirtide
inhibition of HIV-1 mediated CD-4+ cell-cell fusion (syncytial formation) and infection of CD-4+ cells by cell-free virus (HIV-1): potent inhibitor | toxicity [6]: non-toxic

exendin 9-39
incretin effect elicited by oral glucose (GLP-1 receptor): dramatically reduces the incretin effect | antagonism of the GLP-1 effect on food intake (food intake in rats; appropriate doses of the GLP-1 antagonist): abolish the effects of GLP-1
